target: T1, human Keap1 Kelch domain (Homo sapiens, UniProt Q14145); experiment: Fluorescence polarization (FP) competition assay, Cy5-Nrf2 peptide probe; type: binding; details: heterologous competition FP; Keap1 Kelch 14 nM, Cy5-Nrf2 probe 3 nM, 4% DMSO; mean ± SEM
T1 construct: human Keap1 Kelch domain (residue 321-609, UniProt Q14145); made in house; host or cells: Escherichia coli BL21 (DE3) pLysS, pRSET A vector
Protocol: The binding affinities between the fluorescent peptide probe Cy5-Nrf2 (SEQ: Cy5-[…]-NH2) and the human Keap1 Kelch domain were determined as Kd values by saturation binding experiments, where increasing concentrations of Keap1 (0-300 nM) were added to a fixed concentration of peptide probe (3 nM). The assay was performed in a 1× HBSTET buffer (10 mM HEPES, 150 mM NaCl, 0.005% Tween20, 3 mM ethylenediaminetetraacetic acid (EDTA), 1 mM TCEP, pH=7.4) using black flat-bottom 384-well plates (Corning Life Sciences, NY), a volume of 30 μL/well, and a final DMSO concentration of 4% or 8%. The assay plate was spun down to ascertain proper mixing and removal of potential air bubbles and incubated for 10-15 min at room temperature before measuring the FP levels on a Safire2 plate reader (Tecan, Mannedorf, Switzerland). The g-factor was adjusted at each experiment so that a series of three blank wells containing probe but no Keap1 Kelch defined the baseline FP value. The Cy5-Nrf2 probe was measured at excitation/emission values of 635:670 nm. The FP values were fitted to the one-site specific binding equation: Y=Bmax×X/(Kd+X), with Bmax being the maximal FP value, X the Keap1 Kelch concentration, and Y the variable FP values. The Kd values were derived from the resulting binding saturation curve as being equal to the Keap1 Kelch concentration, where the curve is half-saturated.
The affinities between nonfluorescent small molecule Keap1 inhibitors and Keap1 Kelch were determined as Ki values in a heterologous competition FP binding assay. This was done by adding increasing concentration of test compound (2-fold serial dilutions, 12 concentrations tested per inhibition curve as duplicates) to a fixed concentration of Keap1 Kelch (14 nM) and the Cy5-Nrf2 peptide probe (3 nM) in the same HBSTET buffer and conditions as described above (final DMSO concentrations were 4%). FP values were fitted to the equation Y=Bottom+(Top−Bottom)/[1+(10^HillSlope×(log IC50−X))], where X is the logarithmic value of compound concentration. Hereby, the IC50 value was obtained, which together with the […] value and probe and Keap1 Kelch concentrations was used to calculate the theoretical competitive inhibition constant, the Ki value. 43 Ki values are shown as mean±SEM (standard error of mean) if based on two or more individual measurements.

T1 sequence (Q14145 321-609): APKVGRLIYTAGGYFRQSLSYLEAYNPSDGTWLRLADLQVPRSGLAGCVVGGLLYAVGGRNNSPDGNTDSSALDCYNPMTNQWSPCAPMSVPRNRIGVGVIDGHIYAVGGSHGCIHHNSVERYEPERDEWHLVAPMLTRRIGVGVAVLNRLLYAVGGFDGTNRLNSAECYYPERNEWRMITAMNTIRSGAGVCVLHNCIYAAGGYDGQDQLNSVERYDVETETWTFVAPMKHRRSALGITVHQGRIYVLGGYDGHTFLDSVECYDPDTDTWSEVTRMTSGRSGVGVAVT

Row | SMILES | Ki [µM]
1 | COc1ccc(C(CC(=O)O)c2ccc3ccc(OCC(=O)NC4CCCCCC4)cc3c2)cc1C (centres unmarked) [2j, 3-(7-(2-(Cycloheptylamino)-2-oxoethoxy)naphthalen-2-yl)-3-(4-methoxy-3-methylphenyl)propanoic acid] | 0.61 ± 0.06
2 | COc1ccc(C(CC(=O)O)c2ccc3ccc(OCC(=O)NC4CCCCCC4)cc3c2)c(C)c1 (centres unmarked) [2k, 3-(7-(2-(Cycloheptylamino)-2-oxoethoxy)naphthalen-2-yl)-3-(4-methoxy-2-methylphenyl)propanoic acid] | 0.027 ± 0.003
3 | Cc1c(Cl)cccc1C(CC(=O)O)c1ccc2ccc(OCC(=O)NC3CCCCCC3)cc2c1 (centres unmarked) [2l, 3-(3-chloro-2-methylphenyl)-3-(7-(2-(cycloheptylamino)-2-oxoethoxy)naphthalen-2-yl)propanoic acid] | 0.06 ± 0.008
4 | O=C(O)CC(c1ccc2c(c1)OCO2)c1ccc2ccc(OCC(=O)NC3CCCCCC3)cc2c1 (centres unmarked) [2m, 3-(benzo[d][1,3]dioxol-5-yl)-3-(7-(2-(cycloheptylamino)-2-oxoethoxy)naphthalen-2-yl)propanoic acid] | 0.023 ± 0.002
5 | Cc1cc2c(cc1C(CC(=O)O)c1ccc3ccc(OCC(=O)NC4CCCCCC4)cc3c1)OCO2 (centres unmarked) [2n, 3-(7-(2-(cycloheptylamino)-2-oxoethoxy)naphthalen-2-yl)-3-(6-methylbenzo[d][1,3]dioxol-5-yl)propanoic acid] | 0.008 ± 0.002
6 | COc1cc(C(CC(=O)O)c2ccc3ccc(OCC(=O)NC4CCCCCC4)cc3c2)cc2nnn(C)c12 (centres unmarked) [2o, 3-(7-(2-(cycloheptylamino)-2-oxoethoxy)naphthalen-2-yl)-3-(7-methoxy-1-methyl-1H-benzo[d][1,2,3]triazol-5-yl)propanoic acid] | 0.0035 ± 0.0006
7 | CCn1nnc2c(C)c(C(CC(=O)O)c3ccc4ccc(OCC(=O)NC5CCCCCC5)cc4c3)ccc21 (centres unmarked) [2p, 3-(7-(2-(cycloheptylamino)-2-oxoethoxy)naphthalen-2-yl)-3-(1-ethyl-4-methyl-1H-benzo[d][1,2,3]triazol-5-yl)propanoic acid] | 0.0059 ± 0.0007
8 | O=C(O)CC(c1ccc2c(c1)CCO2)c1ccc2ccc(OCC(=O)NC3CCCCCC3)cc2c1 (centres unmarked) [2q, 3-(7-(2-(cycloheptylamino)-2-oxoethoxy)naphthalen-2-yl)-3-(2,3-dihydrobenzofuran-5-yl)propanoic acid] | 0.036 ± 0.003
9 | O=C(O)CC(c1ccc2c(c1)OC(F)(F)O2)c1ccc2ccc(OCC(=O)NC3CCCCCC3)cc2c1 (centres unmarked) [2r, 3-(7-(2-(cycloheptylamino)-2-oxoethoxy)naphthalen-2-yl)-3-(2,2-difluorobenzo[d][1,3]dioxol-5-yl)propanoic acid] | 0.034 ± 0.005
10 | O=C(O)CC(c1ccc2c(c1)OCCO2)c1ccc2ccc(OCC(=O)NC3CCCCCC3)cc2c1 (centres unmarked) [2s, 3-(7-(2-(cycloheptylamino)-2-oxoethoxy)naphthalen-2-yl)-3-(2,3-dihydrobenzo[b][1,4]dioxin-6-yl)propanoic acid] | 0.015 ± 0.003
11 | O=C(O)CC(c1ccc2ccc(OCC(=O)NC3CCCCCC3)cc2c1)c1ccc2occc2c1 (centres unmarked) [2t, 3-(Benzofuran-5-yl)-3-(7-(2-(cycloheptylamino)-2-oxoethoxy)naphthalen-2-yl)propanoic acid] | 0.038 ± 0.002
12 | Cc1cc2c(cc1C(CC(=O)O)c1ccc3ccc(OCC(=O)NC4CCCCCC4)cc3c1)OCCO2 (centres unmarked) [2u, 3-(7-(2-(Cycloheptylamino)-2-oxoethoxy)naphthalen-2-yl)-3-(7-methyl-2,3-dihydrobenzo[b][1,4]dioxin-6-yl)propanoic acid] | 0.009 ± 0.003
13 | Cc1ccc(Cl)cc1C(CC(=O)O)c1ccc2ccc(OCC(=O)NC3CCCCCC3)cc2c1 (centres unmarked) [2v, 3-(5-chloro-2-methylphenyl)-3-(7-(2-(cycloheptylamino)-2-oxoethoxy)naphthalen-2-yl)propanoic acid] | 0.097 ± 0.013
14 | Cc1cc2c(cc1C(CC(=O)O)c1ccc3ccc(OCC(=O)NC4CCCCCC4)cc3c1)OC(F)(F)O2 (centres unmarked) [2w, 3-(7-(2-(cycloheptylamino)-2-oxoethoxy)naphthalen-2-yl)-3-(2,2-difluoro-6-methylbenzo[d][1,3]dioxol-5-yl)propanoic acid] | 0.014 ± 0.002
15 | O=C(O)CC(c1ccc2ccc(OCC(=O)NC3CCCCCC3)cc2c1)c1cc2c(cc1Cl)OCO2 (centres unmarked) [2z, 3-(6-chlorobenzo[d][1,3]dioxol-5-yl)-3-(7-(2-(cycloheptylamino)-2-oxoethoxy)naphthalen-2-yl)propanoic acid] | 0.009 ± 0.002
16 | COc1ccc(C(CC(=O)O)c2ccc3ccc(OCC(=O)NC4CCCCC4)cc3c2)cc1 (centres unmarked) [3a, 3-(7-(2-(cyclohexylamino)-2-oxoethoxy)naphthalen-2-yl)-3-(4-methoxyphenyl)propanoic acid] | 0.07 ± 0.003
17 | COc1ccc(C(CC(=O)O)c2ccc3ccc(OCC(=O)NC4CCCCC4)cc3c2)c(C)c1 (centres unmarked) [3b, 3-(7-(2-(cyclohexylamino)-2-oxoethoxy)naphthalen-2-yl)-3-(4-methoxy-2-methylphenyl)propanoic acid] | 0.054
18 | COc1cc(C)c(C(CC(=O)O)c2ccc3ccc(OCC(=O)NC4CCCCC4)cc3c2)c(C)c1 (centres unmarked) [3c, 3-(7-(2-(cyclohexylamino)-2-oxoethoxy)naphthalen-2-yl)-3-(4-methoxy-2,6-dimethylphenyl)propanoic acid] | 0.168 ± 0.003
19 | O=C(O)CC(c1cccc(Cl)c1)c1ccc2ccc(OCC(=O)NC3CCCCC3)cc2c1 (centres unmarked) [3d, 3-(3-chlorophenyl)-3-(7-(2-(cyclohexylamino)-2-oxoethoxy)naphthalen-2-yl)propanoic acid] | 0.47 ± 0.047
20 | Cc1c(Cl)cccc1C(CC(=O)O)c1ccc2ccc(OCC(=O)NC3CCCCC3)cc2c1 (centres unmarked) [3e, 3-(3-chloro-2-methylphenyl)-3-(7-(2-(cyclohexylamino)-2-oxoethoxy)naphthalen-2-yl)propanoic acid] | 0.066 ± 0.006
21 | O=C(O)CC(c1ccc2c(c1)OCO2)c1ccc2ccc(OCC(=O)NC3CCCCC3)cc2c1 (centres unmarked) [3f, 3-(benzo[d][1,3]dioxol-5-yl)-3-(7-(2-(cyclohexylamino)-2-oxoethoxy)naphthalen-2-yl)propanoic acid] | 0.059 ± 0.006
22 | Cc1cc2c(cc1C(CC(=O)O)c1ccc3ccc(OCC(=O)NC4CCCCC4)cc3c1)OCO2 (centres unmarked) [3g, 3-(7-(2-(cyclohexylamino)-2-oxoethoxy)naphthalen-2-yl)-3-(6-methylbenzo[d][1,3]dioxol-5-yl)propanoic acid] | 0.018 ± 0.006
23 | CCn1nnc2c(C)c(C(CC(=O)O)c3ccc4ccc(OCC(=O)NC5CCCCC5)cc4c3)ccc21 (centres unmarked) [3h, 3-(7-(2-(cyclohexylamino)-2-oxoethoxy)naphthalen-2-yl)-3-(1-ethyl-4-methyl-1H-benzo[d][1,2,3]triazol-5-yl)propanoic acid] | 0.0048 ± 0.001
24 | O=C(O)CC(c1ccc2c(c1)CCO2)c1ccc2ccc(OCC(=O)NC3CCCCC3)cc2c1 (centres unmarked) [3i, 3-(7-(2-(cyclohexylamino)-2-oxoethoxy)naphthalen-2-yl)-3-(2,3-dihydrobenzofuran-5-yl)propanoic acid] | 0.082 ± 0.008
25 | CC1(C)Oc2ccc(C(CC(=O)O)c3ccc4ccc(OCC(=O)NC5CCCCC5)cc4c3)cc2O1 (centres unmarked) [3j, 3-(7-(2-(cyclohexylamino)-2-oxoethoxy)naphthalen-2-yl)-3-(2,2-dimethylbenzo[d][1,3]dioxol-5-yl)propanoic acid] | 0.14 ± 0.011
26 | O=C(O)CC(c1ccc2c(c1)OC(F)(F)O2)c1ccc2ccc(OCC(=O)NC3CCCCC3)cc2c1 (centres unmarked) [3k, 3-(7-(2-(cyclohexylamino)-2-oxoethoxy)naphthalen-2-yl)-3-(2,2-difluorobenzo[d][1,3]dioxol-5-yl)propanoic acid] | 0.052 ± 0.003

From patent publication US20260193170A1 (University of Copenhagen, priority 2022, published 2026)
